Reference: patent publication US20100173013A1, “TREATMENT OF NEOPLASTIC DISORDERS USING COMBINATION THERAPIES” (priority 2009, published 2010)
“And” between values parts separate entries of the source, which are not always exact repeats. Equal entries are not always repeated. Structures can show the parent of a compound that is named as a salt. Where two headings read alike, the source gives them in different places.

What was measured:
A375 melanoma cells = test: Alamar Blue cell inhibition assay, A375; assay type: cell-based; details: drug added 24 hours before Compound K, read-out: IC50 (single agent)
[1] = test system: MDA-MB-468 breast cancer cells; test: Alamar Blue cell inhibition assay, MDA-MB-468; assay type: cell-based; details: 5 day assay, read-out: IC50 (single agent)
[2] = test system: SUM-149PT inflammatory breast carcinoma cells; test: Alamar Blue cell inhibition assay, SUM-149PT; assay type: cell-based; details: for IC50: read-out: IC50 (single agent)
[3] = test system: SUM-190PT inflammatory breast carcinoma cells; test: cells; details: for IC50: read-out: IC50 (single agent)
[4] = test system: BT-474 breast carcinoma cells; test: Alamar Blue cell inhibition assay, BT-474; assay type: cell-based; details: read-out: IC50 (single agent)
[5] = test system: phosphorylation of AKT at S129, T308, S473, p21 at T145, cleavage of PARP; test: Western hybridization analysis in BT-474 (AKT, p21 phosphorylation, PARP cleavage); assay type: cell-based; details: 5 uM Compound K, 1 uM AKTi VIII, 5:1 combination, 8 hour assay
[6] = test system: Hs 578T breast cancer cells; test: Alamar Blue cell inhibition assay, Hs 578T; assay type: cell-based; details: 4 day assay, read-out: IC50 (single agent)
[7] = test system: T47D breast carcinoma cells; test: Alamar Blue cell inhibition assay, T47D; assay type: cell-based; details: read-out: IC50 (single agent)
[8] = test system: erlotinib-resistant ZR-75-1 breast carcinoma cells; test: Alamar Blue cell inhibition assay, ZR-75-1; assay type: cell-based; details: 4 day assay, read-out: IC50 (single agent)
[9] = test system: phosphorylation of Akt at Ser129 and Ser473, PRAS40 at Thr246; details: MDA-MB-453; 10 uM Compound K, 100 uM Erlotinib, 2 uM Lapatinib; 2, 4 and 8 hour
Source text: Whole proteomes were isolated from treated cells and analyzed by Western blot for changes in phosphorylation status of Akt at Ser129 and Ser473 or downstream mediator of Akt activity, PRAS40 at Thr246.

[10] = test system: erlotinib-resistant MDA-MB-453 breast carcinoma cells; details: read-out: IC50 (single agent), 4 day assay
[11] = test system: MIA PaCa-2 pancreatic cancer cells; test: Alamar Blue cell inhibition assay, MIA PaCa-2
[12] = test system: erlotinib-resistant MDA-MB-453 breast carcinoma cells; test: cells; details: Homo sapiens, MDA-MB-453, 96 h, read-out: IC50 (single agent)
[13] = Homo sapiens, A-375, A375, 5 day assay
[14] = Homo sapiens, MDA-MB-468, 120 h, Compound K added first, drug the next day
[15] = Homo sapiens, 72 h, BT-474, 3 day assay
[16] = Homo sapiens, 96 h, BT-474, 4 day assay
[17] = Compound K added first, drug the next day
[18] = Homo sapiens, MDA-MB-468, 120 h, drug added first, Compound K the next day
[19] = Homo sapiens, 96 h, T47D, 4 day assay
[20] = Homo sapiens, MIA PaCa-2, read-out: IC50 (single agent)

O=c1[nH]cc(F)c(=O)[nH]1 [5-Fluorouracil]
IC50 (A375 melanoma cells; [13]): 3 µM
IC50 [1, 14]: 10.6 µM
IC50 ([2]; Homo sapiens, SUM149PT): 1.7 µM
degree of inhibitory effect found with agent combination ([3]; Compound K 0 μM, 5-Fluorouracil 10 μM, 5-Fluorouracil added 24 h before K, 5 day assay, positive=synergy, negative=antagonism): 0.0% and −0.0%
IC50 ([3]; SUM190PT): 12.2 µM

O=c1[nH]c2ccccc2n1C1CCN(Cc2ccc(-c3nc4cc5[nH]cnc5cc4nc3-c3ccccc3)cc2)CC1 [AKTi VIII, 1,3-Dihydro-1-(1-((4-(6-phenyl-1H-imidazo[4,5-g]quinoxalin-7-yl)phenyl)methyl)-4-piperidinyl)-2H-benzimidazol-2-one]
IC50 [4, 15]: 0.55 µM
IC50 [4, 16]: 0.5 µM
cleavage of PARP (i.e. induction of apoptosis) [5]: very minor effect
phosphorylation of AKT at S129 [5]: no effect
phosphorylation of AKT at T308 and S473 [5]: Dramatically reduced
phosphorylation of p21 at T145 [5]: Dramatically decreased

Cn1c(=O)n(-c2ccc(C(C)(C)C#N)cc2)c2c3cc(-c4cnc5ccccc5c4)ccc3ncc21 [BEZ235]
IC50 [4, 15]: 0.01 µM

N.N.[Cl][Pt][Cl] [Cisplatin]
IC50 [1, 17]: 0.43 µM
IC50 ([2]; SUM-149PT, drug added 24 hours before Compound K, 5 day assay): 0.462 µM

CO[C@H]1/C=C\C=C(/C)C(=O)NC2=CC(=O)C(NCCN(C)C)=C(C[C@@H](C)C[C@H](OC)[C@H](O)[C@@H](C)/C=C(\C)[C@@H]1OC(N)=O)C2=O [Compound 17-DMAG, 17-Dimethylamino-ethylamino-17-demethoxygeldanamycin]
IC50 [6]: 0.00637 µM

O=C(O)c1ccc2c(c1)nc(Nc1cccc(Cl)c1)c1ccncc12 [Compound K]
IC50 (A375 melanoma cells; A375, 4 day assay): 5 µM and 4.8 µM and 5.1 µM
IC50 [1, 17]: 4.6 µM and 4.5 µM and 4.3 µM
IC50 ([1]; drug added first, Compound K the next day): 4.4 µM and 4.3 µM and 4.5 µM
IC50 ([3]; SUM-190PT, drug added 24 hours before Compound K, 5 day assay): 0.852 µM
IC50 [4]: 2.7 µM and 2.9 µM and 2.68 µM
IC50 ([7]; T47D, 4 day assay): 5.9 µM and 5.87 µM
IC50 ([7]; T-47D, 3 day assay): 3.35 µM
IC50 [8]: 4.1 µM
IC50 [6]: 17.6 µM and 16.7 µM
phosphorylation of Akt at Ser129 [9]: significant reduction
phosphorylation of Akt at Ser473 [9]: affected, but to a lesser degree
phosphorylation of PRAS40 at Thr246 [9]: significantly less pronounced
cleavage of PARP (i.e. induction of apoptosis) [5]: very minor effect
phosphorylation of AKT at S129 [5]: Dramatically reduced
phosphorylation of AKT at T308 and S473 [5]: moderate effect
phosphorylation of p21 at T145 [5]: Dramatically decreased
IC50 [10]: 6.15 µM
IC50 ([11]; read-out: IC50 (single agent), MIA PaCa-2, added simultaneously, 4 day assay): 1.7 µM
IC50 ([11]; read-out: IC50 (single agent), MIA PaCa-2, drug added 24 hours before Compound K, 4 day assay): 1.5 µM and 2 µM
IC50 ([11]; read-out: IC50 (single agent), MIA PaCa-2, drug added 24 hours before Compound K, 5 day assay): 4.1 µM

COc1cccc2c1C(=O)c1c(O)c3c(c(O)c1C2=O)C[C@@](O)(C(=O)CO)C[C@@H]3O[C@H]1C[C@H](N)[C@H](O)[C@H](C)O1 [Doxorubicin]
IC50 [1, 14]: 0.016 µM
IC50 [1, 18]: 0.017 µM

C#Cc1cccc(Nc2ncnc3cc(OCCOC)c(OCCOC)cc23)c1 [Erlotinib]
degree of inhibitory effect found with agent combination ([2]; Compound K 0 μM, Erlotinib 10 μM, Erlotinib added 24 h before K, 5 day assay, positive=synergy, negative=antagonism): 0.0%
IC50 ([2]; Homo sapiens, SUM149PT): 2.2 µM
IC50 [4, 16]: 6.6 µM
IC50 [7, 19]: 47 µM
IC50 ([8]; Homo sapiens, 96 h): > 200 µM
phosphorylation of Akt at Ser129 [9]: no effect
phosphorylation of Akt at Ser473 [9]: below the detectable levels
phosphorylation of PRAS40 at Thr246 [9]: pronounced decrease
IC50 [12]: > 100 µM

Nc1nc(F)nc2c1ncn2[C@@H]1O[C@H](CO)[C@@H](O)[C@@H]1O [Fludarabine]
IC50 (A375 melanoma cells; [13]): 0.0029 µM

Nc1ccn([C@@H]2O[C@H](CO)[C@@H](O)C2(F)F)c(=O)n1 [Gemcitabine]
IC50 [1, 14]: 0.008 µM
IC50 [1, 18]: 0.0088 µM
IC50 [11, 20]: 0.184 µM

O=c1cc(N2CCOCC2)oc2c(-c3ccccc3)cccc12 [LY294002, 2-(4-morpholinyl)-8-phenyl-4H-1-benzopyran-4-one]
IC50 [4, 15]: 2.26 µM

CS(=O)(=O)CCNCc1ccc(-c2ccc3ncnc(Nc4ccc(OCc5cccc(F)c5)c(Cl)c4)c3c2)o1 [Lapatinib]
IC50 [7, 19]: 5.68 µM
phosphorylation of Akt at Ser129 [9]: no effect
phosphorylation of Akt at Ser473 [9]: below the detectable levels
phosphorylation of PRAS40 at Thr246 [9]: pronounced decrease

Oc1cccc(-c2nc(N3CCOCC3)c3oc4ncccc4c3n2)c1 [PI-103, 3-[4-(4-morpholinylpyrido[3′,2′:4,5]furo[3,2-d]pyrimidin-2-yl]phenol hydrochloride]
IC50 [4, 15]: 0.41 µM
IC50 ([7]; Homo sapiens, T47D, 72 h): 5.37 µM

Cc1[nH]c2ccccc2c1CCNCc1ccc(/C=C/C(=O)NO)cc1 [Panobinostat]
IC50 ([6]; Homo sapiens, 96 h): 0.00276 µM

CO[C@H]1C[C@@H]2CC[C@@H](C)[C@@](O)(O2)C(=O)C(=O)N2CCCC[C@H]2C(=O)O[C@H]([C@H](C)C[C@@H]2CC[C@@H](O)[C@H](OC)C2)CC(=O)[C@H](C)/C=C(\C)[C@@H](O)[C@@H](OC)C(=O)[C@H](C)C[C@H](C)/C=C/C=C/C=C/1C [Rapamycin]
IC50 ([2]; Homo sapiens, SUM149PT): 9.7 µM
IC50 ([11]; Homo sapiens, MIA PaCa-2, 96 h, read-out: IC50 (single agent)): 18.1 µM

CNC(=O)c1cc(Oc2ccc(NC(=O)Nc3ccc(Cl)c(C(F)(F)F)c3)cc2)ccn1 [Sorafenib]
IC50 [7, 19]: 3.58 µM

CCN(CC)CCNC(=O)c1c(C)[nH]c(/C=C2\C(=O)Nc3ccc(F)cc32)c1C [Sunitinib]
IC50 (A375 melanoma cells; Homo sapiens, A-375, A375, 4 day assay): 0.145 µM
IC50 [7, 19]: 6.2 µM
IC50 [11, 20]: 0.42 µM

CC[C@]1(O)C[C@@H]2CN(CCc3c([nH]c4ccccc34)[C@@](C(=O)OC)(c3cc4c(cc3OC)N(C)[C@H]3[C@@](O)(C(=O)OC)[C@H](OC(C)=O)[C@]5(CC)C=CCN6CC[C@]43[C@@H]65)C2)C1 [Vinblastine]
IC50 (A375 melanoma cells; [13]): 0.0012 µM
IC50 [11, 20]: 1.4e-05 µM

COC[C@H]1OC(=O)c2coc3c2[C@@]1(C)C1=C(C3=O)[C@@H]2CCC(=O)[C@@]2(C)C[C@H]1OC(C)=O [Wortmannin]
IC50 [4, 15]: 25.9 µM
